{
  "source": "patent US8318712B2",
  "about": "“Concentrated liquid thyroid hormone composition” (Intervet International B.V., priority 2006, dated 2012)",
  "key": {"[1]": {"details": "as reported by Sigma-Aldrich; cited from earlier work"}, "[2]": {"assay": "Stability of levothyroxine sodium in aqueous HPBCD solutions with phosphate and carbonate buffers, sealed container", "assay_type": "physicochemical", "details": "experiments of Table 9", "source_text": "Applicants investigated the stability of levothyroxine sodium in aqueous HPBCD solutions with phosphate and carbonate buffers in a sealed container."}, "[3]": {"assay": "Solubility in water, effect of levothyroxine sodium particle size", "assay_type": "physicochemical", "details": "observed after 24 hours", "method": "The solubilities of batches of levothyroxine sodium micronized (D99<13 μm) and not micronized (D99<125 μm) were investigated. Preparations with several amounts of active ingredient in a fixed volume of water were observed after 24 hours. In both cases, less than 100 μg of levothyroxine sodium was soluble per ml of water."}, "[4]": {"assay": "Stability of levothyroxine sodium in aqueous HPBCD solution with or without stabilizers", "assay_type": "physicochemical", "details": "experiments of Tables 2-4", "source_text": "The stability of levothyroxine sodium in an aqueous solution of HPBCD with or without stabilization was investigated."}, "[5]": {"assay": "Solubility in aqueous HPBCD solution, effect of complexing agent and copolymers", "assay_type": "physicochemical", "method": "In an aqueous solution of 30% (w/w) HPBCD (Kleptose HPB, Roquette, France), 1000 μg/ml of levothyroxine sodium was dissolved. Applicants have observed that similar levothyroxine sodium solubilities may be achieved at lesser concentrations of HPBCD by adding a copolymer(s), such as, for example, sodium carboxymethyl cellulose (“CMC”), hydroxypropylmethylcellulose 4000 (“HPMC”), and/or povidone 12PF.\n0.5% w/w of CCM and 15% (w/w) of HPBCD,\n0.5% w/w of HPMC and 20% (w/w) of HPBCD, or\n2% w/w of Povidone 12PF and 20% (w/w) of HPBCD."}, "[6]": {"assay": "Solubility of levothyroxine sodium, effect of pH", "assay_type": "physicochemical", "source_text": "To have an acceptable biological pH and to improve the solubility of levothyroxine, the pH preferably is at least about 8, or at least about 9."}},
  "data": [
    {"smiles": "CC(C)(N)CO", "note": "[AMP, 2-amino-2-methyl-1-propanol]", "values": [
      {"measurement": "effective pH range", "setting": "[1]", "value": "8.7-10.4"}
    ]},
    {"smiles": "O=S(=O)(O)CCCCNC1CCCCC1", "note": "[CABS, 4-[cyclohexylamino]-1-butanesulfonic acid]", "values": [
      {"measurement": "effective pH range", "setting": "[1]", "value": "10.0-11.4"}
    ]},
    {"smiles": "O=S(=O)(O)CCCNC1CCCCC1", "note": "[CAPS, N-cyclohexyl-3-aminopropanesulfonic acid]", "values": [
      {"measurement": "effective pH range", "setting": "[1]", "value": "9.7-11.1"}
    ]},
    {"smiles": "O=S(=O)(O)CC(O)CNC1CCCCC1", "note": "(stereo not shown) [CAPSO, 3-[cyclohexylamino]-2-hydroxy-1-propanesulphonic acid]", "values": [
      {"measurement": "effective pH range", "setting": "[1]", "value": "8.9-10.3"}
    ]},
    {"smiles": "NCC(=O)O", "note": "[Glycine]", "values": [
      {"measurement": "effective pH range", "setting": "[1]", "value": "8.8-10.6"},
      {"measurement": "pKa2", "setting": "[1]", "value": 9.78}
    ]},
    {"smiles": "CN", "note": "[Methylamine]", "values": [
      {"measurement": "effective pH range", "setting": "[1]", "value": "9.5-11.5"}
    ]},
    {"smiles": "NCCO", "note": "[ethanolamine]", "values": [
      {"measurement": "effective pH range", "setting": "[1]", "value": "6.0-12.0"}
    ]},
    {"smiles": "N[C@@H](Cc1cc(I)c(Oc2cc(I)c(O)c(I)c2)c(I)c1)C(=O)[O-].[Na+]", "note": "[levothyroxine sodium]", "values": [
      {"measurement": "compatibility with HPBCD in aqueous solution", "setting": "[2]", "value": "did not exhibit incompatibility"},
      {"measurement": "levothyroxine sodium soluble per ml of water", "setting": "[3]; micronized (D99<13 μm)", "value": "less than 100 μg per ml"},
      {"measurement": "levothyroxine sodium soluble per ml of water", "setting": "[3]; not micronized (D99<125 μm)", "value": "less than 100 μg per ml"},
      {"measurement": "compatibility with HPBCD in aqueous solution", "setting": "[4]", "value": "did not exhibit incompatibility"},
      {"measurement": "levothyroxine sodium dissolved", "setting": "[5]; aqueous solution of 30% (w/w) HPBCD", "value": 1000, "unit": "µg/mL"},
      {"measurement": "levothyroxine sodium dissolved", "setting": "[5]; aqueous solution, 0.5% w/w of CCM and 15% (w/w) of HPBCD", "value": 1000, "unit": "µg/mL"},
      {"measurement": "levothyroxine sodium dissolved", "setting": "[5]; aqueous solution, 0.5% w/w of HPMC and 20% (w/w) of HPBCD", "value": 1000, "unit": "µg/mL"},
      {"measurement": "levothyroxine sodium dissolved", "setting": "[5]; aqueous solution, 2% w/w of Povidone 12PF and 20% (w/w) of HPBCD", "value": 1000, "unit": "µg/mL"},
      {"measurement": "solubility", "setting": "[6]; pH 7.3", "value": 28, "unit": "µg/mL"},
      {"measurement": "solubility relative to pH 7.3", "setting": "[6]; pH 9.4", "value": 7, "unit": "times greater"},
      {"measurement": "solubility relative to pH 7.3", "setting": "[6]; pH 10.45", "value": 11, "unit": "times greater"}
    ]}
  ]
}
